# In ChEMBL document CHEMBL1152404, “Structure-Activity Relationship of novel phenylacetic CXCR1 inhibitors” (Bioorg Med Chem Lett, 2009):
# How the values were obtained:
# [1] = Cytotoxicity against mouse L1.2 cells assessed as cell viability by trypan blue dye exclusion assay; format: cell-based; design: concentration or dose not given beside the values; conditions: read-out: Activity
# [2] = Cytotoxicity against of human polymorphonuclear leukocytes assessed as cell viability by trypan blue dye exclusion assay; design: concentration or dose not given beside the values; conditions: read-out: Activity
Compound,viability [1] [%],viability [2] [%]
CC(C(=O)NCCO)c1ccccc1Nc1c(Cl)cccc1Cl (configuration not stated),> 95,> 95
O=C(O)Cc1ccccc1Nc1c(F)cccc1F,> 95,> 95
Cc1ccc(C(=O)c2ccc(CC(=O)O)n2C)cc1 [TOLMETIN],> 95,> 95
CC(C(=O)NS(C)(=O)=O)c1ccccc1Nc1c(Cl)cccc1Cl (configuration not stated),> 95,> 95
CC(C)Cc1ccc([C@@H](C)C(=O)O)cc1 [(R)-IBUPROPHEN],> 95,> 95
O=C(O)Cc1ccccc1Nc1c(Cl)cccc1Cl [DICLOFENAC],> 95,> 95
Cc1cccc(C)c1NC(=O)C(C)c1ccccc1Nc1c(Cl)cccc1Cl (configuration not stated),> 95,> 95
CC(C(=O)NCCCN(C)C)c1ccccc1Nc1c(Cl)cccc1Cl (configuration not stated),> 95,> 95
CC(C)Cc1ccc(CC(=O)O)cc1 [IBUFENAC],> 95,> 95
CS(=O)(=O)NC(=O)Cc1ccccc1Oc1ccccc1F,> 95,> 95
CC(C(N)=O)c1ccccc1Nc1c(Cl)cccc1Cl (configuration not stated),> 95,> 95
Cc1ccc(Cl)c(Nc2ccccc2CC(=O)O)c1Cl,> 95,> 95
O=C(O)Cc1ccccc1Nc1ccccc1,> 95,> 95
O=C(O)Cc1ccccc1Nc1ccccc1F,> 95,> 95
O=C(O)Cc1ccccc1Oc1ccccc1Cl,> 95,> 95
COc1ccc2c(c1)c(CC(=O)O)c(C)n2C(=O)c1ccc(Cl)cc1 [INDOMETHACIN],> 95,> 95
O=C(O)Cc1ccccc1Oc1ccccc1F,> 95,> 95
O=C(O)Cc1ccccc1Cc1c(Cl)cccc1Cl,> 95,> 95
CC(C(=O)O)c1ccccc1Nc1c(Cl)cccc1Cl (configuration not stated),> 95,> 95
CC(C(=O)NC(C)(C)C)c1ccccc1Nc1c(Cl)cccc1Cl (configuration not stated),> 95,> 95
Cc1ccccc1Nc1ccccc1CC(=O)O,> 95,> 95
O=C(O)Cc1ccccc1Nc1ccccc1Cl,> 95,> 95
O=C(O)Cc1cccc(C(=O)c2ccccc2)c1,> 95,> 95
O=C(O)Cc1ccccc1Nc1cc(Cl)ccc1Cl,> 95,> 95
CC(C(=O)NCCC[N+](C)(C)C)c1ccccc1Nc1c(Cl)cccc1Cl (configuration not stated),> 95,> 95
O=C(O)Cc1ccccc1Oc1ccccc1,> 95,> 95
